{"source": "paper PMC4233179", "about": "(Molecular cancer research : MCR, 2014)", "molecular_target": "T1, NEDD4-1 (Homo sapiens, UniProt P46934)", "T1 sequence (P46934 1-1319)": "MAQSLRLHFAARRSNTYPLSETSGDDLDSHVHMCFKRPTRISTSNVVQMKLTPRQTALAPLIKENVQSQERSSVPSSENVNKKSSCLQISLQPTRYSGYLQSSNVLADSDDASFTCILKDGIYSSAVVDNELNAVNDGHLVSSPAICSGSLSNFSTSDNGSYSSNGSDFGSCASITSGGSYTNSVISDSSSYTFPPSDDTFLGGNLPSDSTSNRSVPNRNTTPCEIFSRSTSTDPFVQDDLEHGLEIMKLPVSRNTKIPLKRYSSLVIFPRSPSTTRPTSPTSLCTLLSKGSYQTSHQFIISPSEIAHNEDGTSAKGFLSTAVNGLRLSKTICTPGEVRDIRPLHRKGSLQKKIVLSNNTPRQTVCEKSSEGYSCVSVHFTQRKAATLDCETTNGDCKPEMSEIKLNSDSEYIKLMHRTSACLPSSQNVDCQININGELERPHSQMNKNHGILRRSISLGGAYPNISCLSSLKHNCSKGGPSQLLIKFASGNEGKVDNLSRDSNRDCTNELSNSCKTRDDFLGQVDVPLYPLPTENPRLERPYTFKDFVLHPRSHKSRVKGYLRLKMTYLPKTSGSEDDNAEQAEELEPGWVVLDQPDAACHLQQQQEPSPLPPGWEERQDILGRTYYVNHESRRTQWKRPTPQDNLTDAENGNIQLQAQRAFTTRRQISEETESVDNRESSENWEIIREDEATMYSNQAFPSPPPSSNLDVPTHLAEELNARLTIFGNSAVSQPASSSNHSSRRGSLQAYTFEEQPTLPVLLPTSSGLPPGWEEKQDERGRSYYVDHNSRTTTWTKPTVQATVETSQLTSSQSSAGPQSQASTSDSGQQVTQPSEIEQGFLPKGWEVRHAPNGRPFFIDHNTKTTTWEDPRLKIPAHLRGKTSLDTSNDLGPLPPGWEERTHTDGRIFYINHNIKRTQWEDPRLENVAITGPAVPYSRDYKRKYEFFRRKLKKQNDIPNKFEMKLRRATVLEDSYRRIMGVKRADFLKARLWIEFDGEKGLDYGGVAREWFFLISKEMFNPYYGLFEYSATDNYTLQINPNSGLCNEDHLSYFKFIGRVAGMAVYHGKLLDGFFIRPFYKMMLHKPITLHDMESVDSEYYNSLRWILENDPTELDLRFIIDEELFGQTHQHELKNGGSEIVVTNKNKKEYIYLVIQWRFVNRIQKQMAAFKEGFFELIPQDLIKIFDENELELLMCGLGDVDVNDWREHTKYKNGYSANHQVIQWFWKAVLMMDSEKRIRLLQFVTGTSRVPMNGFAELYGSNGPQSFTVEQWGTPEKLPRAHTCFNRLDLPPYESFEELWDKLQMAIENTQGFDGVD", "assay": "isothermal titration calorimetry", "format": "binding"}
{"smiles": "OCc1c[nH]c2ccccc12", "note": "[I3C, indole-3-carbinol]", "values": [{"measurement": "Kd", "result": "~88.1", "unit": "µM"}]}
